Measured values: US11066372B2, “Deuterated benzimidazole compound and medical use thereof” (Sumitomo Dainippon Pharma Co., Ltd., priority 2017, dated 2021)

How the values were obtained:
human SCN9A (Nav 1.7) = human SCN9A (Nav 1.7) (Homo sapiens, UniProt Q15858); test: Measurement of Na ion current (Nav 1.7) by automated patch clamp assay in cells stably-expressing human SCN9A; format: cell-based; conditions: compound concentration 10 μmol/L, holding potential inactivating 50% Nav 1.7 channel (around −60 mV); for inhibition at 10 µM: read-out: Inhibitory rate (%) of Na ion current
Sequence of human SCN9A (Nav 1.7) (Q15858 whole entry): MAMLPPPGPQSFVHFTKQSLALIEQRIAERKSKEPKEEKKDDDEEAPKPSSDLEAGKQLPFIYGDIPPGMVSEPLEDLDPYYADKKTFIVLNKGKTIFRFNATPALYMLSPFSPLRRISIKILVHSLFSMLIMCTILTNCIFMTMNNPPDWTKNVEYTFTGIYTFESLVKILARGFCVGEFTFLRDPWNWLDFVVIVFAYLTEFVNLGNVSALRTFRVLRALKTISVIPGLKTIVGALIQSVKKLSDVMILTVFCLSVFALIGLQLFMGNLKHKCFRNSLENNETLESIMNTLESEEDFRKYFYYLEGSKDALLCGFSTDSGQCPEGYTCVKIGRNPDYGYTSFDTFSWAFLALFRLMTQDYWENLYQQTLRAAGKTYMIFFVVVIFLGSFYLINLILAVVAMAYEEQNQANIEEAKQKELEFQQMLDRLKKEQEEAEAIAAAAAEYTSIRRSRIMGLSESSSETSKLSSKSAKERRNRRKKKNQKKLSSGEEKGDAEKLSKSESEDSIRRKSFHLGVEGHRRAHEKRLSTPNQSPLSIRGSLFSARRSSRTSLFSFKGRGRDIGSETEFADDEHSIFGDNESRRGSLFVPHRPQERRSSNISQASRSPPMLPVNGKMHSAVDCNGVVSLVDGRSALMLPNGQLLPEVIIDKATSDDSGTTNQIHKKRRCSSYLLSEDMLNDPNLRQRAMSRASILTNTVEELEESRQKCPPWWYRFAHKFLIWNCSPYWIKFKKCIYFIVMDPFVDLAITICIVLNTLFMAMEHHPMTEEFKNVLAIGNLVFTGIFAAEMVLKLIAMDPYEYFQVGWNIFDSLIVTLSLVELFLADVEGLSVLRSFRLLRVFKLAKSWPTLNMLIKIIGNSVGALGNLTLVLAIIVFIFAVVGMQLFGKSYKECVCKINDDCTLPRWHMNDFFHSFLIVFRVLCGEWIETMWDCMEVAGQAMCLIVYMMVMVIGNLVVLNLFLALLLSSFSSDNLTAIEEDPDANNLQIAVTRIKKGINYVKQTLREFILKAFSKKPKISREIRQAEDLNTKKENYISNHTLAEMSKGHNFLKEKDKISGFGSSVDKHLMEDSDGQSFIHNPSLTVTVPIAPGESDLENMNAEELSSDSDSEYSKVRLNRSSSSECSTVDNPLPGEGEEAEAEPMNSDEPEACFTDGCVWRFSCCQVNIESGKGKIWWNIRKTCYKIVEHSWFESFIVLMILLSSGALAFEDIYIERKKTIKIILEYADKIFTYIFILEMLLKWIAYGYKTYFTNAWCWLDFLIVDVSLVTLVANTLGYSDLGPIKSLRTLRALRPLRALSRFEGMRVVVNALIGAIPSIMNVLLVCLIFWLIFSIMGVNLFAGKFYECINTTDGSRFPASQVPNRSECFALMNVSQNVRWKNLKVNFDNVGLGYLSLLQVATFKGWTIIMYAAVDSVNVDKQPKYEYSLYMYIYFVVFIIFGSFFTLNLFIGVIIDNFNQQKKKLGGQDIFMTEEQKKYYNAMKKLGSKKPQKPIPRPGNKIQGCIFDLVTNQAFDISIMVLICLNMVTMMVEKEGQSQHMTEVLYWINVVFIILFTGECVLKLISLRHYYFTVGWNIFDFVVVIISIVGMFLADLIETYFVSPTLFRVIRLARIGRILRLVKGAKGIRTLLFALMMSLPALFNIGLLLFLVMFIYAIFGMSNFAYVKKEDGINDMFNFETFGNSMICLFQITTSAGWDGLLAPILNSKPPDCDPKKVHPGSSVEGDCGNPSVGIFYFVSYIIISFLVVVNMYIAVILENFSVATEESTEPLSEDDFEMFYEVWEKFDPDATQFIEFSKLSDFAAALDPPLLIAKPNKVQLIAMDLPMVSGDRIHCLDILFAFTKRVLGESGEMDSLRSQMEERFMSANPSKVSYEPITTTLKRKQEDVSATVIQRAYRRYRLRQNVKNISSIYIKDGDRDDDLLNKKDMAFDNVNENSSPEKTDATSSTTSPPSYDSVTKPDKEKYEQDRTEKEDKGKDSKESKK
Procedure: Test 1: Measurement of Na Ion Current in Voltage-Dependent Na Channel Gene Expressed Cell
Nav 1.7 current was measured by automated patch clamp assay using cells stably-expressing human SCN9A.
Cells Stably-Expressing Human SCN9A
Tetracycline-induced cells stably-expressing SCN9A were obtained from ChanTest Corporation. The cells were passaged in Ham's F-12 medium containing 10% fetal bovine serum, 100 units/mL Penicillin-Streptomycin, 0.01 mg/mL Blasticidin, and 0.4 mg/mL Zeocin. The day before the measurement, the medium was replaced with Ham's F-12 medium containing 1 μg/mL tetracycline, 100 μmol/L sodium butyrate, 10% fetal bovine serum, and 100 units/mL Penicillin-Streptomycin. Next day, the Na ion current was measured by automated patch clamp assay.
Electrophysiologic Measurement of Na Ion Current
The Na ion current was measured by automated patch clamp assay using the following extracellular solution and intracellular solution.
Extracellular solution (mmol/L): NaCl 130, MgCl2 2, CaCl2 2, CdCl2 0.1, NiCl2 0.1, Tetraethylammonium-Cl 18, 4-aminopyridine 1, HEPES 10, (adjusting pH 7.4 with NaOH)
Intracellular solution (mmol/L): CsF 120, EGTA 10, NaCl 15, HEPES 10, (adjusting pH 7.2 with CsOH)
The control of the stimulating pulse and the data acquisition were carried out using EPC10 amplifier and Patch Master Software (HEKA). Data were sampled at 10 kHz, and low-pass filtered at 3 kHz. All the measurements were carried out at room temperature. The holding potential was set at a potential inactivating 50% Nav 1.7 channel (around −60 mV), and depolarizing pulse of 20 milliseconds (+10 mV) was given once. […] The inhibitory rate of the Na ion current by the test compounds was calculated according to the following calculating formula with the peak current value generated by the depolarizing pulse. Inhibitory rate of Na ion current (%)=100×[(Peak current value in the absence of Test Compound)−(Peak current value in the presence of Test Compound)]/(Peak current value in the absence of Test Compound) Result: […]

[1] = Metabolic stability test in liver microsome (rat); format: in vitro ADME; conditions: NADPH, 37° C., 30 minutes, dealkyl metabolite product (Reference example 5-7) assayed
Procedure: (§1) Test 3: Metabolic Stability Test in Liver Microsome
(§2) To a solution obtained by mixing 4 μL of human or rat liver microsome (produced by Xenotech, 20 mg/mL), 100 μL of 100 mM phosphate buffer solution (pH 7.4), and 74 μL of ultrapure water were added 2 μL of 1 μM DMSO solution of the test compound and further 40 μL of 10 mM aqueous NADPH (produced by Oriental Yeast Co., ltd.), and then the mixture was incubated at 37° C. for 30 minutes. After the incubation, 50 μL of the reaction solution was added to methanol to cease the metabolic reaction. The quenched solution was centrifuged at 4° C. at 4500 rpm for 5 minutes, and the supernatant was filtrated. 100 μL of the supernatant was mixed with 100 μL of 10 mM aqueous ammonium acetate, and the mixture was analyzed with LC (Shimadzu, NexeraX2)-MS (AB Sciex, TripleTOF5600) to determine the amount of the corresponding metabolite product in the mixture.

[2] = Metabolic stability test in liver microsome (human); format: in vitro ADME; conditions: NADPH, 37° C., 30 minutes, dealkyl metabolite product (Reference example 5-7) assayed
Procedure: as §1, §2

[3] = tested on: rats streptozotocin (STZ)-induced diabetic peripheral neuropathy model; test: Analgesic effect (von Frey test) in streptozotocin-induced diabetic peripheral neuropathic pain model; format: in vivo, rat; conditions: orally administered 3 mg/kg, one hour before measuring, male Wistar rats
Procedure: Test 2: Evaluation of Analgesic Effect in Streptozotocin-Induced Diabetic Peripheral Neuropathic Pain Models
Using some typical compounds among the compounds of the present invention, the inhibitory effect for neuropathic pain was determined through the evaluation of analgesic effect in rats streptozotocin (STZ)-induced diabetic peripheral neuropathy model.
The disease animal model was prepared by means of a partially-modified method of Fox et al. (Pain 81, 307-316, 1999). STZ was intraperitoneally administered to 9-week old male Wistar rats in 45 mg/kg of body weight to prepare animal model suffering from diabetic peripheral neuropathy.
The analgesic effect was evaluated by von Frey test. Specifically, mechanical sensitivity was measured by applying hairs (von Frey hair) to the plantar surface of the animal's hind paw, and then the reaction thresholds (50% paw withdrawal thresholds) for the mechanical stimulation was determined by using a formula based on Chaplan et al. (Journal of Neuroscience Methods 53, 55-63, 1994).
One and two days before evaluating the test compounds, the reaction thresholds were measured to obtain an average thereof, and the average value was used as a reference value obtained before the test compounds would be administered. […]
In the evaluation test of the test compounds, the reaction thresholds were measured after administering each test compound. […]

| Compound | Inhibitory rate (%) of Na ion current (human SCN9A (Nav 1.7)) | Rate of generating the metabolite product, rat [1] | Rate of generating the metabolite product, human [2] | extension width of reaction thresholds (50% paw withdrawal threshold, after minus before administration) [3] | inhibition at 10 µM (human SCN9A (Nav 1.7)) |
| --- | --- | --- | --- | --- | --- |
| 1-[6-(4-fluorophenoxy)-1H-benzimidazol-1-yl]-2-methyl (1,1-^2H2) propan-2-ol [Example 1] | 36% | – | – | – | – |
| 2-methyl-1-(6-{[5-(trifluoromethyl)pyridin-2-yl]oxy}-1H-benzimidazol-1-yl) (1,1-^2H2)propan-2-ol [Example 2] | 36% | 0.260 pmol/min/mg protein | 0.026 pmol/min/mg protein | 5.0 g | – |
| [2H]C([2H])(n1cnc2ccc(-c3ccc(C(F)(F)F)cc3OC)cc21)C1(O)COC1 [Example 5, 3-[{6-[2-methoxy-4-(trifluoromethyl)phenyl]-1H-benzimidazol-1-yl}(^2H2)methyl]oxetan-3-ol] | – | – | – | – | 55% |
| 4-[6-(4-chlorophenoxy)-1H-benzimidazol-1-yl]-2-methyl(4,4-^2H2)butan-2-ol [Example 3] | 40% | 0.40 pmol/min/mg protein | 0.069 pmol/min/mg protein | – | – |
| [2H]C([2H])(n1cnc2ccc(Oc3ccc(OC(F)(F)F)cc3)cc21)C1(O)COC1 [Example 4, 3-[{6-[4-(trifluoromethoxy)phenoxy]-1H-benzimidazol-1-yl}(^2H2)methyl]oxetan-3-ol] | – | – | – | – | 68% |
